From ChEMBL document CHEMBL5154863, “Design and synthesis of quinolinium-based derivatives targeting FtsZ for antibacterial evaluation and mechanistic study” (Eur J Med Chem, 2022)
Converted amounts (≈) assume the structure as drawn. The source made the active and inactive calls. The rule behind the calls is not given here.

Legend:
Escherichia coli [1] = test: Antibacterial activity against NDM-1 expressing Escherichia coli ATCC BAA2469 assessed as inhibition of bacterial growth incubated for 20 to 24 hrs by broth micro dilution method; format: functional; conditions: time 20-24 hrs
[2] = target: T1, Cell division protein FtsZ (Staphylococcus aureus) (UniProt P0A031); test: Binding affinity to Staphylococcus aureus FtsZ assessed as decrease in random coil structure at 8 ug/ml incubated for 30 mins by circular dichroism method; conditions: dose 8.0 µg/ml
T1 sequence (whole entry): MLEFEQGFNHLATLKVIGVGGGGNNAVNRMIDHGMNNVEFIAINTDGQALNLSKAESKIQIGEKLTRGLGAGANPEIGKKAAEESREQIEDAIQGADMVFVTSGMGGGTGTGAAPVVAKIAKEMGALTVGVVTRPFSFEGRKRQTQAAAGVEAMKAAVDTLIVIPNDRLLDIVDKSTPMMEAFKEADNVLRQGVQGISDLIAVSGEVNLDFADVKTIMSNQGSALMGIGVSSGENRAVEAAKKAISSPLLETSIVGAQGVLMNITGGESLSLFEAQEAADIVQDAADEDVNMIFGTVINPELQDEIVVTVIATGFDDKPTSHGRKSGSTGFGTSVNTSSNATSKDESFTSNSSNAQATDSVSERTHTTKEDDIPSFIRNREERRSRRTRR

Staphylococcus aureus [3] = test: Antibacterial activity against methicillin-resistant Staphylococcus aureus ATCC 33592 assessed as inhibition of bacterial growth incubated for 20 to 24 hrs by broth micro dilution method; format: functional; conditions: time 20-24 hrs
Klebsiella pneumoniae = test: Antibacterial activity against NDM-1 expressing Klebsiella pneumoniae ATCC BAA 2470 assessed as inhibition of bacterial growth incubated for 20 to 24 hrs by broth micro dilution method; format: functional; conditions: time 20-24 hrs
Staphylococcus aureus [4] = test: Antibacterial activity against methicillin-resistant Staphylococcus aureus ATCC BAA41 assessed as fractional inhibitory concentration index incubated for 24 hrs by checker board assay; format: functional
[5] = target: T1, Cell division protein FtsZ (Staphylococcus aureus); test: Binding affinity to Staphylococcus aureus FtsZ assessed as equilibrium binding constant by isothermal titration calorimetry
Staphylococcus aureus [6] = test: Antibacterial activity against methicillin-resistant Staphylococcus aureus ATCC BAA-1720 assessed as inhibition of bacterial growth incubated for 20 to 24 hrs by broth micro dilution method; format: functional; conditions: time 20-24 hrs
Enterococcus faecium [7] = test: Antibacterial activity against vancomycin resistant Enterococcus faecium ATCC 700221 assessed as inhibition of bacterial growth incubated for 20 to 24 hrs by broth micro dilution method; format: functional; conditions: time 20-24 hrs
[8] = target: T2, Cell division protein FtsZ (Staphylococcus aureus, UniProt P0A031); test: Binding affinity to Staphylococcus aureus FtsZ assessed as dissociation constant by isothermal titration calorimetry
T2 sequence (P0A031 whole entry): T1 sequence (whole entry)

Acinetobacter baumannii = test: Antibacterial activity against multi-drug resistant Acinetobacter baumannii ATCC 19606 assessed as inhibition of bacterial growth incubated for 20 to 24 hrs by broth micro dilution method; format: functional; conditions: time 20-24 hrs
Enterococcus faecium [9] = test: Antibacterial activity against Enterococcus faecium ATCC 49624 assessed as inhibition of bacterial growth incubated for 20 to 24 hrs by broth micro dilution method; format: functional; conditions: time 20-24 hrs
Staphylococcus aureus [10] = test: Bactericidal activity against Staphylococcus aureus ATCC 29213 assessed as inhibition of bacterial growth incubated for 24 hrs by resazurin dye based microtiter plate assay; format: functional
Staphylococcus aureus [11] = test: Antibacterial activity against Staphylococcus aureus ATCC 29213 assessed as inhibition of bacterial growth incubated for 20 to 24 hrs by broth micro dilution method; format: functional; conditions: time 20-24 hrs
Bacillus subtilis [12] = test: Bactericidal activity against Bacillus subtilis CMCC (B) 63501 assessed as inhibition of bacterial growth incubated for 24 hrs by resazurin dye based microtiter plate assay; format: functional
Bacillus subtilis [13] = test: Induction of morphological changes in Bacillus subtilis CMCC (B) 63501 assessed as elongation of bacterial cell at 0.5 times MIC for 4 hrs (reference value: 3 to 5 um) by microscopic analysis; format: functional
Staphylococcus aureus [14] = test: Synergistic antibacterial activity against methicillin-resistant Staphylococcus aureus ATCC BAA41 assessed as inhibition of bacterial growth incubated for 24 hrs in presence of methicillin by checker board assay; format: functional
[15] = system: Staphylococcus epidermidis; test: Antibacterial activity against Staphylococcus epidermidis ATCC 12228 assessed as inhibition of bacterial growth incubated for 20 to 24 hrs by broth micro dilution method; format: functional; conditions: time 20-24 hrs
[16] = target: T1, Cell division protein FtsZ (Staphylococcus aureus); test: Binding affinity to Staphylococcus aureus FtsZ assessed as increase in alpha helix structure at 8 ug/ml incubated for 30 mins by circular dichroism method; conditions: dose 8.0 µg/ml
Bacillus subtilis [17] = test: Antibacterial activity against Bacillus subtilis CMCC (B) 63501 assessed as inhibition of bacterial growth incubated for 20 to 24 hrs by broth micro dilution method; format: functional; conditions: time 20-24 hrs
[18] = target: T1, Cell division protein FtsZ (Staphylococcus aureus); test: Induction of Staphylococcus aureus FtsZ polymerization expressed in Escherichia coli BL21 (DE3) assessed as increase in absorbance at 2 to 8 ug/ml in presence of GTP by microplate reader method; conditions: dose 2-8 µg/ml, DDE = dose-dependent effect
Staphylococcus aureus [19] = test: Antibacterial activity against methicillin-resistant Staphylococcus aureus ATCC 43300 assessed as inhibition of bacterial growth incubated for 20 to 24 hrs by broth micro dilution method; format: functional; conditions: time 20-24 hrs
Staphylococcus aureus [20] = test: Bactericidal activity against Staphylococcus aureus ATCC 43300 assessed as inhibition of bacterial growth incubated for 24 hrs by resazurin dye based microtiter plate assay; format: functional
Escherichia coli [21] = test: Antibacterial activity against Escherichia coli ATCC 25922 assessed as inhibition of bacterial growth incubated for 20 to 24 hrs by broth micro dilution method; format: functional; conditions: time 20-24 hrs
[22] = target: T1, Cell division protein FtsZ (Staphylococcus aureus); test: Binding affinity to Staphylococcus aureus FtsZ assessed as decrease in other structure at 8 ug/ml incubated for 30 mins by circular dichroism method; conditions: dose 8.0 µg/ml
[23] = target: T1, Cell division protein FtsZ (Staphylococcus aureus); test: Binding affinity to Staphylococcus aureus FtsZ assessed as decrease in beta turn structure at 8 ug/ml incubated for 30 mins by circular dichroism method; conditions: dose 8.0 µg/ml
Staphylococcus aureus [24] = test: Antibacterial activity against methicillin-resistant Staphylococcus aureus ATCC BAA41 assessed as inhibition of bacterial growth incubated for 24 hrs by checker board assay; format: functional
Enterococcus faecalis = test: Antibacterial activity against Enterococcus faecalis ATCC 29212 assessed as inhibition of bacterial growth incubated for 20 to 24 hrs by broth micro dilution method; format: functional; conditions: time 20-24 hrs
[25] = Ratio of MBC for bactericidal activity against Staphylococcus aureus ATCC 29213 to MIC for antibacterial activity against Staphylococcus aureus ATCC 29213; format: functional
[26] = Ratio of MBC for bactericidal activity against Bacillus subtilis CMCC (B) 63501 to MIC for antibacterial activity against Bacillus subtilis CMCC (B) 63501; format: functional
Enterococcus faecium [27] = test: Antibacterial activity against vancomycin-resistant Enterococcus faecium clinical isolate assessed as inhibition of bacterial growth incubated for 20 to 24 hrs by broth micro dilution method; format: functional; conditions: time 20-24 hrs
Enterococcus faecium [28] = test: Bactericidal activity against Enterococcus faecium ATCC 700221 assessed as inhibition of bacterial growth incubated for 24 hrs by resazurin dye based microtiter plate assay; format: functional
Staphylococcus aureus [29] = test: Induction of morphological changes in Staphylococcus aureus ATCC 29213 assessed as enlargement of cell size at 0.5 times MIC for 4 hrs by microscopic analysis; format: functional, organism-based
Pseudomonas aeruginosa = test: Antibacterial activity against […] Pseudomonas aeruginosa ATCC 27853 assessed as inhibition of bacterial growth incubated for 20 to 24 hrs by broth micro dilution method; format: functional; conditions: time 20-24 hrs
Staphylococcus aureus [30] = test: Antibacterial activity against vancomycin-intermediate Staphylococcus aureus Mu50 assessed as inhibition of bacterial growth incubated for 20 to 24 hrs by broth micro dilution method; format: functional; conditions: time 20-24 hrs
Escherichia coli [31] = test: Antibacterial activity against Escherichia coli ATCC 8739 assessed as inhibition of bacterial growth incubated for 20 to 24 hrs by broth micro dilution method; format: functional; conditions: time 20-24 hrs
[32] = Ratio of MBC for bactericidal activity against Enterococcus faecium ATCC 700221 to MIC for antibacterial activity against Enterococcus faecium ATCC 700221; format: functional
[33] = Ratio of MBC for bactericidal activity against Staphylococcus aureus ATCC 43300 to MIC for antibacterial activity against Staphylococcus aureus ATCC 43300; format: functional
Staphylococcus aureus [34] = test: Induction of drug resistance against Staphylococcus aureus ATCC 29213 assessed as fold increase in MIC after 16 passage; format: functional

Structure (SMILES)	MIC (Escherichia coli [1]) [µg/mL]	Activity [2]	MIC (Staphylococcus aureus [3]) [µg/mL]	MIC (Klebsiella pneumoniae) [µg/mL]	fractional inhibitory concentration index (FICI) (Staphylococcus aureus [4])	Kb [5]	MIC (Staphylococcus aureus [6]) [µg/mL]	MIC (Enterococcus faecium [7]) [µg/mL]	MIC (Acinetobacter baumannii) [µg/mL]	MIC (Enterococcus faecium [9]) [µg/mL]	MIC (Staphylococcus aureus [11]) [µg/mL]	MIC [15] [µg/mL]	MIC (Bacillus subtilis [17]) [µg/mL]	MIC (Staphylococcus aureus [19]) [µg/mL]	MIC (Escherichia coli [21]) [µg/mL]	MIC (Enterococcus faecalis) [µg/mL]	MIC (Enterococcus faecium [27]) [µg/mL]	MIC (Pseudomonas aeruginosa) [µg/mL]	MIC (Staphylococcus aureus [30]) [µg/mL]	MIC (Escherichia coli [31]) [µg/mL]	further results
CCCCCNc1cc(/C=C/c2ccc(N(C)C)cc2)[n+](C)c2ccccc12.[I-]	> 64	Active	2	> 64	0.375	2.01 10^5/M	1	4	> 64	8	2	1	4	2	64	4	4	> 64	4	> 64	Kd [8]: 2380 nM; MBC (Staphylococcus aureus [10]): 8 µg/mL; MBC (Bacillus subtilis [12]): 4 µg/mL; Activity (Bacillus subtilis [13]): 30 um; MIC (Staphylococcus aureus [14]): 0.5 µg/mL; Activity [16]: Active; Activity [18]: Dde; MBC (Staphylococcus aureus [20]): 8 µg/mL; Activity [22]: Active; Activity [23]: Active; MIC (Staphylococcus aureus [24]): 4 µg/mL; Ratio [25]: 4; Ratio [26]: 1; MBC (Enterococcus faecium [28]): 8 µg/mL; Activity (Staphylococcus aureus [29]): Active; Ratio [32]: 2; Ratio [33]: 4
CO[C@H]1/C=C/O[C@@]2(C)Oc3c(C)c(O)c4c(O)c(c(/C=N/N5CCN(C)CC5)c(O)c4c3C2=O)NC(=O)/C(C)=C\C=C\[C@H](C)[C@H](O)[C@@H](C)[C@@H](O)[C@@H](C)[C@H](OC(C)=O)[C@@H]1C [RIFAMPIN]	> 64		> 64	> 64			< 0.125	< 0.125	> 64	< 0.125	0.5 (≈ 0.608 µM)	1 (≈ 1.22 µM)	0.125 (≈ 0.152 µM)	< 0.125	2 (≈ 2.43 µM)	0.125 (≈ 0.152 µM)	8 (≈ 9.72 µM)	> 64	0.125 (≈ 0.152 µM)	8 (≈ 9.72 µM)	fold change (FC) (Staphylococcus aureus [34]): 4096
CN(C)c1ccc(/C=C/c2cc(N3CCCCC3)c3ccccc3[n+]2C)cc1.[I-]	64	Active	1	> 64	0.25	2.02 10^5/M	2	1	64	8	1	1	2	1	16	4	4	> 64	2	64	Kd [8]: 2490 nM; MBC (Staphylococcus aureus [10]): 8 µg/mL; MBC (Bacillus subtilis [12]): 4 µg/mL; Activity (Bacillus subtilis [13]): 30 um; MIC (Staphylococcus aureus [14]): 2 µg/mL; Activity [16]: Active; Activity [18]: Dde; MBC (Staphylococcus aureus [20]): 4 µg/mL; Activity [22]: Active; Activity [23]: Active; MIC (Staphylococcus aureus [24]): 16 µg/mL; Ratio [25]: >4; Ratio [26]: 2; MBC (Enterococcus faecium [28]): 4 µg/mL; Activity (Staphylococcus aureus [29]): Active; Ratio [32]: 4; Ratio [33]: 4
